Assay results reported in the supplement of paper PMC8497498.

How the values were obtained:
[1] = system: Plasmodium falciparum 3D7 asexual blood stage; test: EC50 asexual blood stage growth; conditions: serum: 0.5% AlbuMAX
Protocol: (§1)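 The Reference Compound Library was tested by 10-point 3-fold dose response against P. cynomolgi Berok K4 asexual blood stages (SYBR proliferation assay, mefloquine background control). Culture medium contained 0.5% AlbuMAX or 20% M. fascicularis serum. P. falciparum 3D7 was tested in a 72-h SYBR Green assay with 0.5% AlbuMAX. Values are geometric mean EC50 over independent experiments; 10 uM is the top dose.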

[2] = system: Plasmodium cynomolgi Berok K4 asexual blood stage; test: EC50 asexual blood stage growth
Protocol: as §1

[3] = serum: 20% M. fascicularis serum

| SMILES | EC50 asexual blood stage growth [1] | EC50 asexual blood stage growth ([2]; serum: 0.5% AlbuMAX) | EC50 asexual blood stage growth [2, 3] |
| --- | --- | --- | --- |
| CC(C)N=C(N)N=C(N)Nc1ccc(Cl)cc1 [Proguanil] | 2740 nM | > 10000 nM | > 10000 nM |
| CC1CCC2C(C)C(O)OC3OC4(C)CCC1C32O4 (stereo not drawn) [Deoxydihydroartemisinin] | > 10000 nM | > 10000 nM | > 10000 nM |
| C[C@H]1c2cccc(O)c2C(=O)C2=C(O)[C@]3(O)C(=O)C(C(N)=O)=C(O)[C@@H](N(C)C)C3[C@@H](O)C21 (stereo partly drawn) [Doxycycline] | 9930 nM | 9360 nM | 8350 nM |
| CC(C)(C)NCc1cc(C(C)(C)C)cc(-c2ccc(Cl)cc2)c1O | 14.1 nM | 2 nM | 6.8 nM |
| CN(C)c1ccc2nc3ccc(=[N+](C)C)cc-3sc2c1 [Methylene blue] | 17.8 nM | 5.4 nM | 6 nM |
| CN(C)Cc1ccccc1CNc1ccnc2cc(Cl)ccc12 [Phenylequine] | 7.4 nM | 36.6 nM | 40.7 nM |
| CC(C)(C)c1cc(O)c(CN)c(C(C)(C)C)c1.Cl [MK-4815] | 574 nM | 49.4 nM | 93.8 nM |
| CC1CC(C)C(=O)C(C(O)CC2CC(=O)NC(=O)C2)C1 (stereo not drawn) [Cyclohexamide] | 282 nM | 35.2 nM | 40.1 nM |
| O=C1C(O)=C([C@H]2CC[C@H](c3ccc(Cl)cc3)CC2)C(=O)c2ccccc21 [Atovaquone] | 0.9 nM | 1 nM | 1.7 nM |
| CC(=O)N(O)CCCCCNC(=O)CCC(=O)N(O)CCCCCNC(=O)CCC(=O)N(O)CCCCCN [Deferoxamine] | > 10000 nM | > 10000 nM | > 10000 nM |
| CCCCN(CCCC)CCC(O)c1cc2c(Cl)cc(Cl)cc2c2cc(C(F)(F)F)ccc12 (stereo not drawn) [Halofantrine] | 3.7 nM | 0.5 nM | 0.5 nM |
| Cc1nn(C)c(NC(=O)Cn2c(C(C)C)nc3ccccc32)c1-c1ccc(Cl)cc1F [21A092] | 14.8 nM | 7 nM | 79.4 nM |
| Cc1c(Oc2cnc(C(=O)N3CC(C)(O)C3)cn2)ccc2c1B(O)OC2 [AN762] | 101 nM | 1750 nM | 2200 nM |
| N=C(N)c1ccc(OCCCCCOc2ccc(C(=N)N)cc2)cc1 [Pentamidine] | 139 nM | 212 nM | 389 nM |
| Nc1ccc(S(=O)(=O)Nc2ncccn2)cc1 [Sulfadiazine] | > 10000 nM | > 10000 nM | 8320 nM |
| CCC[C@@H]1C[C@@H](C(=O)N[C@@H]([C@H]2O[C@H](SC)[C@H](O)[C@@H](O)[C@H]2O)[C@H](C)Cl)N(C)C1 [Clindamycin] | > 10000 nM | > 10000 nM | 9210 nM |
| CN(Cc1cnc2nc(N)nc(N)c2n1)c1ccc(C(=O)N[C@@H](CCC(=O)O)C(=O)O)cc1 [Methotrexate] | 138 nM | 232 nM | 168 nM |
| CC(C)(C)NCc1cc(Nc2ccnc3cc(Cl)ccc23)ccc1F | 9.8 nM | 77.4 nM | 38.8 nM |
| CCN(CC)CCCC(C)Nc1ccnc2cc(Cl)ccc12 (stereo not drawn) [Chloroquine] | 82.2 nM | 183 nM | 32.8 nM |
| CC(C)(C)NCc1cc(Nc2ccnc3cc(Cl)ccc23)c2c(c1O)CCCC2 [Naphthoquine] | 8.7 nM | 23.2 nM | 68.3 nM |
| O=CN(O)CCCP(=O)(O)O [Fosmidomycin] | > 10000 nM | > 10000 nM | 6690 nM |
| CCN(CC)CCCCCCNc1cc(OC)cc2c(C)ccnc12 [Sitamaquine] | 730 nM | 773 nM | 1050 nM |
| Nc1ccc(S(=O)(=O)c2ccc(N)cc2)cc1 [Dapsone] | > 10000 nM | > 10000 nM | > 10000 nM |

| SMILES | EC50 asexual blood stage growth [1] | EC50 asexual blood stage growth ([2]; serum: 0.5% AlbuMAX) | EC50 asexual blood stage growth [2, 3] |
| --- | --- | --- | --- |
| c1cc(C2CCC3(CC2)OOC2(O3)C3CC4CC(C3)CC2C4)ccc1OCCN1CCOCC1 (stereo not drawn) [Artefenomel] | 42.4 nM | 3.4 nM | 2.3 nM |
| Cc1c(CCO)sc[n+]1CCCCCCCCCCCC[n+]1csc(CCO)c1C [Albitiazolium] | 14.4 nM | 367 nM | 144 nM |
| CCCCN(CCCC)CC(O)c1cc(Cl)cc2c1-c1ccc(Cl)cc1C2=Cc1ccc(Cl)cc1 (stereo not drawn) [Lumefantrine] | 30.5 nM | 23.3 nM | 105 nM |
| COc1cc(NC(C)CCCN)c2ncccc2c1 (stereo not drawn) [Primaquine] | 5750 nM | 3100 nM | 9000 nM |
| CC(C)(N)CNC(=O)CC1CCC2(CC1)OOC1(O2)C2CC3CC(C2)CC1C3 (stereo not drawn) [Arterolane] | 7.8 nM | 1.4 nM | 1 nM |
| Cc1cc2nc3c(=O)[nH]c(=O)nc-3n(CC(O)C(O)C(O)CO)c2cc1C (stereo not drawn) [Riboflavin] | > 10000 nM | > 10000 nM | > 10000 nM |
| CC1CCC2C(C)C(N3CCS(=O)(=O)CC3)OC3OC4(C)CCC1C32OO4 (stereo not drawn) [Artemisone] | 5 nM | 1 nM | 0.6 nM |
| CN(C)CC1=C(CNc2ccnc3cc(Cl)ccc23)C=[C-]C1.[C-]1=CC=CC1.[Fe+2] [Ferroquine] | 11.5 nM | 43.3 nM | 36.2 nM |
| Clc1ccc2c(N3CCN(CCCN4CCN(c5ccnc6cc(Cl)ccc56)CC4)CC3)ccnc2c1 [Piperaquine] | 299 nM | 68.2 nM | 35.3 nM |
| CC(=O)N[C@@H](C(=O)O)C(C)(C)S [N-acetyl-D-penicillamine] | > 10000 nM | 7560 nM | > 10000 nM |
| CONC(=N)c1ccc(-c2ccc(-c3ccc(C(=N)NOC)cc3)o2)cc1 [Pafuramidine] | > 10000 nM | > 10000 nM | > 10000 nM |
| CC1CCC2C(C)C(O)OC3OC4(C)CCC1C32OO4 (stereo not drawn) [Artenimol] | 6.5 nM | 0.6 nM | 0.5 nM |
| CC1(C)c2nc(-c3ccc(F)cc3)c(Nc3ccc(F)cc3)n2CCN1C(=O)CN [KAF-156] | 24.4 nM | 3.6 nM | 36.6 nM |
| CC1CCC2C(C)C(OC(=O)CCC(=O)O)OC3OC4(C)CCC1C32OO4 (stereo not drawn) [Artesunate] | 41.3 nM | 6.2 nM | 3 nM |
| CCN(CCO)CCCC(C)Nc1ccnc2cc(Cl)ccc12 (stereo not drawn) [Hydroxychloroquine] | 427 nM | 3370 nM | 209 nM |
| CC12CCC3C(CC=C4CC(OS(=O)(=O)O)CCC43C)C1CCC2=O (stereo not drawn) [Dehydroepiandrosterone sulphate] | > 10000 nM | > 10000 nM | > 10000 nM |
| N=C(N)c1ccc(-c2ccc(-c3ccc(C(=N)N)cc3)o2)cc1 [Furamidine] | 540 nM | 4670 nM | 864 nM |
| COc1cc(C)c2c(Oc3cccc(C(F)(F)F)c3)c(OC)cc(NC(C)CCCN)c2n1 (stereo not drawn) [Tafenoquine] | 5940 nM | 5290 nM | > 10000 nM |
| CC1CCCC(CC2Cc3cc(O)cc(O)c3C(=O)O2)O1 (stereo not drawn) [Cladosporin] | 75.8 nM | 124 nM | 1430 nM |
| CC1CCC2C(C)C(=O)OC3OC4(C)CCC1C32OO4 (stereo not drawn) [Artemisinin] | 94.8 nM | 7.3 nM | 9.4 nM |
| Cc1cc(Nc2ccc(C(F)(F)F)nc2)n2nc(C(C)(F)F)nc2n1 [DSM421] | 35.1 nM | 60.5 nM | 59.5 nM |
| CCc1nc(N)nc(N)c1-c1ccc(Cl)cc1 [Pyrimethamine] | 36.6 nM | 21.8 nM | 7.2 nM |
| CC1Cc2c([nH]c3cc(Cl)c(F)cc23)C2(N1)C(=O)Nc1ccc(Cl)cc12 (stereo not drawn) [Cipargamin] | 1.4 nM | 3.3 nM | 15.4 nM |
